From patent US20190084939A1, “ANALOGS OF FEXARAMINE AND METHODS OF MAKING AND USING” (Salk Institute for Biological Studies, priority 2014, published 2019)
pEC50: −log10 of the molar value. Where two headings read alike, the source gives them in different places.

Molecular target: T1, Human FXR full length (Homo sapiens, UniProt Q96RI1)
T1 construct: Human FXR full length and RXR full length was obtained from Ronald Evans' laboratory; expressed in transfected cells; host or cells: CV-1 cells
T1 sequence (Q96RI1 1-476 isoform Q96RI1-1): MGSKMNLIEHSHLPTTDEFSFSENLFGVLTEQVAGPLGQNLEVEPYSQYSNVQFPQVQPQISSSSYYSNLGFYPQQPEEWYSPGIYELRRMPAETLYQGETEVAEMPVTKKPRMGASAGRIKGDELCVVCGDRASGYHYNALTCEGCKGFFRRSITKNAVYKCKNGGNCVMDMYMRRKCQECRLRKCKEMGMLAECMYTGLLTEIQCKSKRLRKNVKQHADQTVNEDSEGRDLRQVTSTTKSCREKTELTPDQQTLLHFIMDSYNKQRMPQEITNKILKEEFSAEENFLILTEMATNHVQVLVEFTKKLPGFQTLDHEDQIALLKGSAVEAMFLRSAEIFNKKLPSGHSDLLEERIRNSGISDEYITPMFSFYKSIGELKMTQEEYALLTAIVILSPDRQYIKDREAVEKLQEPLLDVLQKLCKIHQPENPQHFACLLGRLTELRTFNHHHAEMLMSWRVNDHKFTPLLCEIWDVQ
T1 sequence (P19793 1-462 partner): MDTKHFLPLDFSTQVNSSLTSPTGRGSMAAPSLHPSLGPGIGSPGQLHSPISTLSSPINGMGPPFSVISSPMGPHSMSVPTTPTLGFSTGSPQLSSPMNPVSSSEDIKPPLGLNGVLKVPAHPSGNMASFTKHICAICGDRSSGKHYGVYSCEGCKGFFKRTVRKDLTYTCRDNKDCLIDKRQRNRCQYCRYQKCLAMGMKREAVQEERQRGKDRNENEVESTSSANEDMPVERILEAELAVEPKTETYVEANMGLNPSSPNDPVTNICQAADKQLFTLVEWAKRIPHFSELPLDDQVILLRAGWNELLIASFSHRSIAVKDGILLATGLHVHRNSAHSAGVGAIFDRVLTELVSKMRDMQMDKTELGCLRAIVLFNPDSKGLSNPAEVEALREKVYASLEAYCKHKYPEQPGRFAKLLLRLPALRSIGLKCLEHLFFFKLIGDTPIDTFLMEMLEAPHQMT
Assay: FXR activity screen, luciferase reporter in transfected CV-1 cells
Type: cell-based
Procedure: CV-1 cells were grown in DMEM+10% charcoal stripped FCS. Cells were seeded into 384-well plates the day before transfection to give a confluency of 50-80% at transfection. A total of […] DNA containing 0.32 micrograms pCMX-hFXRfl, 0.32 micrograms pCMX-hRXRfl, 0.1 micrograms pCMXβGal, 0.08 micrograms pGLFXRE reporter and 0.02 micrograms pCMX empty vector was transfected per well using FuGene transfection reagent according to the manufacturer's instructions (Roche). Cells were allowed to express protein for 48 hours followed by addition of compound.
Human FXR full length and RXR full length was obtained from Ronald Evans' laboratory and PCR amplification of the hFXR cDNA and the hRXR cDNA was performed. The amplified cDNAs was cloned into the vector pCMX generating the plasmids pCMX-hFXRfl and pCMX-hRXRfl. Ensuing fusions were verified by sequencing. The pCMXMH2004 luciferase reporter contains multiple copies of the GAL4 DNA response element under a minimal eukaryotic promoter (Hollenberg and Evans, 1988). pCMXβGal was generated in the Evans laboratory, Salk Institute.
All compounds were dissolved in DMSO and diluted 1:1000 upon addition to the cells. Compounds were tested in quadruple in concentrations ranging from 0.001 to 100 μM. Cells were treated with compound for 24 hours followed by luciferase assay. Each compound was tested in at least two separate experiments.
Medium including test compound was aspirated and washed with PBS. 50 μL PBS including 1 mM Mg^2+ and Ca^2+ were then added to each well. The luciferase assay was performed using the LucLite kit according to the manufacturer's instructions (Packard Instruments). Light emission was quantified by counting on a Perkin Elmer Envision reader. To measure […] activity 25 μL supernatant from each transfection lysate was transferred to a new 384 microplate. Beta-galactosidase assays were performed in the microwell plates using a kit from Promega and read in a Perkin Elmer Envision reader. The beta-galactosidase data were used to normalize (transfection efficiency, cell growth etc.) the luciferase data.
The activity of a compound is calculated as fold induction compared to an untreated sample. For each compound the efficacy (maximal activity) is given as a relative activity compared to Fexaramine, a FXR agonist. The EC50 is the concentration giving 50% of maximal observed activity. EC50 values were calculated via non-linear regression using GraphPad PRISM (GraphPad Software, San Diego, Calif.).

[1] = first round, CV-1 cells, 24 hours, read-out: 1st RND EC50
[2] = second round, CV-1 cells, 24 hours, read-out: 2nd RND EC50

Row | SMILES | pEC50 [1] | pEC50 [2] | pEC50 (retest, read-out: EC50 (retested))
1 | COC(=O)/C=C/c1cc(F)cc(N(Cc2cccc3cc4cnn(C)c4c(F)c23)C(=O)C2C[C@H]3CC[C@@H]2C3)c1 (stereo partly shown) [NSSK00020] | 6.13 | 6.33 | –
2 | [2H]C(c1ccc(-c2ccc3c(cnn3C)c2)cc1)N(C(=O)c1ccccc1)c1cc(F)cc(/C=C/C(=O)OC)c1 (stereo not shown) [NSSK00051] | 5.96 | 5.30 | –
3 | COC(=O)/C=C/c1cccc(N(Cc2cccc3cc4cnn(C)c4c(F)c23)C(=O)C2C[C@H]3CC[C@@H]2C3)c1 (stereo partly shown) [NSSK00019] | 6.03 | 6.26 | –
4 | COC(=O)/C=C/c1cccc(N(Cc2cccc3cc4cnn(C)c4c(F)c23)C(=O)C2CCN(C)CC2)c1 [NSSK00036] | 4.73 | 5.31 | –
5 | [2H]C(c1ccc(-c2ccc3c(cnn3C)c2)cc1F)N(C(=O)c1ccccc1)c1cccc(/C=C/C(=O)OC)c1 (stereo not shown) [NSSK00038] | 5.86 | 5.72 | –
6 | [2H]C(c1ccc(-c2ccc3c(cnn3C)c2)cc1F)N(C(=O)C1CCCCC1)c1cncc(/C=C/C(=O)OC)c1 (stereo not shown) [NSSK00012] | 5.92 | 5.92 | –
7 | COC(=O)/C=C/c1cccc(N(Cc2ccc(-c3ccc(N(C)C)cc3)cc2)C(=O)c2ccccc2)c1 [NSSK00053] | 6.28 | 6.27 | –
8 | COC(=O)/C=C/c1cccc(N(Cc2ccc(-c3ccc(N(C)C)cc3)cc2Cl)C(=O)C2CCCCC2)c1 [NSSK00080] | 6.21 | 6.21 | –
9 | COC(=O)/C=C/c1cc(F)cc(N(Cc2ccc(-c3ccc4c(cnn4C)c3)cc2Cl)C(=O)[C@@H]2C[C@@H]3CC[C@H]2C3)c1 [NSSK00047] | 6.45 | 6.39 | –
10 | [2H]C(c1ccc(-c2ccc(N(C)C)cc2)cc1F)N(C(=O)c1ccccc1)c1cccc(/C=C/C(=O)OC)c1 (stereo not shown) [NSSK00079] | 6.29 | 6.22 | –
11 | COC(=O)/C=C/c1cccc(N(Cc2ccc(-c3ccc4c(cnn4C)c3)cc2)C(=O)[C@H]2C[C@H]3CC[C@@H]2C3)c1 [NSSK00017] | 6.12 | 6.30 | –
12 | [2H]C(c1ccc(-c2ccc(N(C)C)cc2)cc1Cl)N(C(=O)C1CCCCC1)c1cncc(/C=C/C(=O)OC)c1 (stereo not shown) [NSSK00032] | 5.59 | 5.54 | –
13 | COC(=O)/C=C/c1cccc(N(Cc2ccc(-c3ccc(N(C)C)cc3)cc2Cl)C(=O)[C@@H]2C[C@@H]3CC[C@H]2C3)c1 [NSSK00052] | 6.16 | 6.16 | –
14 | COC(=O)/C=C/c1cccc(N(Cc2ccc(-c3ccc4c(cnn4C)c3)cc2Cl)C(=O)[C@@H]2C[C@@H]3CC[C@H]2C3)c1 [NSSK00046] | 6.19 | 6.28 | –
15 | COC(=O)/C=C/c1cc(F)cc(N(Cc2ccc(-c3ccc4c(cnn4C)c3)cc2)C(=O)c2ccccc2)c1 [NSSK00058] | 5.92 | 5.82 | –
16 | [2H]C(c1ccc(-c2ccc3c(cnn3C)c2)cc1F)N(C(=O)c1ccccc1)c1cccc(/C=C/C(=O)OC)c1 (stereo not shown) [NSSK00093] | 6.34 | 6.29 | –
17 | [2H]C(c1ccc(-c2ccc(N(C)C)cc2)cc1Cl)N(C(=O)[C@@H]1C[C@@H]2CC[C@H]1C2)c1cc(F)cc(/C=C/C(=O)OC)c1 (stereo partly shown) [NSSK00104] | 6.64 | 6.26 | –
18 | COC(=O)/C=C/c1cc(F)cc(N(Cc2ccc(-c3ccc(N(C)C)cc3)cc2F)C(=O)[C@@H]2C[C@@H]3CC[C@H]2C3)c1 [NSSK00044] | 6.83 | 6.84 | –
19 | [2H]C(c1ccc(-c2ccc(N(C)C)cc2)cc1Cl)N(C(=O)c1ccccc1)c1cc(F)cc(/C=C/C(=O)OC)c1 (stereo not shown) [NSSK00050] | 5.77 | 5.68 | –

Row | SMILES | pEC50 [1] | pEC50 [2] | pEC50 (retest, read-out: EC50 (retested))
20 | [2H]C(c1ccc(-c2ccc(N(C)C)cc2)cc1Cl)N(C(=O)[C@@H]1C[C@@H]2CC[C@H]1C2)c1cccc(/C=C/C(=O)OC)c1 (stereo partly shown) [NSSK00045] | 6.48 | 6.48 | –
21 | [2H]C(c1ccc(-c2ccc3c(cnn3C)c2)cc1F)N(C(=O)c1ccccc1)c1cncc(/C=C/C(=O)OC)c1 (stereo not shown) [NSSK00067] | 9.40 | 9.70 | –
22 | COC(=O)/C=C/c1cccc(N(Cc2ccc(-c3ccc4c(cnn4C)c3)cc2)C(=O)C2CCN(C)CC2)c1 [NSSK00035] | 5.48 | 5.35 | –
23 | COC(=O)/C=C/c1cccc(N(Cc2ccc(-c3ccc4c(cnn4C)c3)cc2)C(=O)C2CCCCC2)c1 [NSSK00004] | 6.63 | 6.57 | –
24 | COC(=O)/C=C/c1cccc(N(Cc2cccc3ccc(N(C)C)c(F)c23)C(=O)C2CCCCC2)c1 [NSSK00002] | 7.01 | 7.18 | –
25 | [2H]C(c1ccc(-c2ccc3c(cnn3C)c2)cc1Cl)N(C(=O)[C@@H]1C[C@@H]2CC[C@H]1C2)c1cncc(/C=C/C(=O)OC)c1 (stereo partly shown) [NSSK00073] | 6.92 | 6.84 | –
26 | COC(=O)/C=C/c1cccc(N(Cc2cccc3ccc(N(C)C)cc23)C(=O)C2CCCCC2)c1 [NSSK00001] | 7.16 | 7.25 | –
27 | [2H]C(c1ccc(-c2ccc(N(C)C)cc2)cc1F)N(C(=O)c1ccccc1)c1cc(F)cc(/C=C/C(=O)OC)c1 (stereo not shown) [NSSK00108] | – | 6.30 | –
28 | [2H]C(c1ccc(-c2ccc(N(C)C)cc2)cc1Cl)N(C(=O)C1CCCCC1)c1cc(F)cc(/C=C/C(=O)OC)c1 (stereo not shown) [NSSK00072] | 5.96 | 5.66 | –
29 | COC(=O)/C=C/c1cncc(N(Cc2ccc(-c3ccc4c(cnn4C)c3)cc2Cl)C(=O)c2ccccc2)c1 [NSSK00092] | 5.47 | 5.26 | –
30 | COC(=O)/C=C/c1cc(F)cc(N(Cc2ccc(-c3ccc4c(cnn4C)c3)cc2Cl)C(=O)C2CCCCC2)c1 [NSSK00097] | 6.06 | 6.14 | –
31 | [2H]C(c1ccc(-c2ccc(N(C)C)cc2)cc1F)N(C(=O)[C@@H]1C[C@@H]2CC[C@H]1C2)c1cc(F)cc(/C=C/C(=O)OC)c1 (stereo partly drawn) [NSSK00110, methyl (E)-3-(3-((1S,2R,4R)—N-((4′-(dimethylamino)-3-fluoro-[1,1′-biphenyl]-4-yl)methyl-d)bicyclo[2.2.1]heptane-2-carboxamido)-5-fluorophenyl)acrylate] | 7.22 | 6.76 | 7.34
32 | [2H]C(c1ccc(-c2ccc3c(cnn3C)c2)cc1)N(C(=O)C1CCCCC1)c1cncc(/C=C/C(=O)OC)c1 (stereo not shown) [NSSK00034] | 5.66 | 5.57 | –
33 | COC(=O)/C=C/c1cc(F)cc(N(Cc2cccc3cc4cnn(C)c4c(F)c23)C(=O)C2CCCCC2)c1 [NSSK00007] | 6.33 | 6.77 | –
34 | COC(=O)/C=C/c1cc(F)cc(N(Cc2ccc(-c3ccc(N(C)C)cc3)cc2Cl)C(=O)c2ccccc2)c1 [NSSK00103] | 6.51 | 6.00 | –
35 | [2H]C(c1ccc(-c2ccc3c(cnn3C)c2)cc1Cl)N(C(=O)C1CCCCC1)c1cc(F)cc(/C=C/C(=O)OC)c1 (stereo not shown) [NSSK00016] | 6.55 | 6.42 | –
36 | [2H]C(c1ccc(-c2ccc(N(C)C)cc2)cc1)N(C(=O)c1ccccc1)c1cccc(/C=C/C(=O)OC)c1 (stereo not shown) [NSSK00048] | 6.42 | 6.45 | –
37 | [2H]C(c1ccc(-c2ccc(N(C)C)cc2)cc1F)N(C(=O)C1CCCCC1)c1cc(F)cc(/C=C/C(=O)OC)c1 (stereo not shown) [NSSK00109] | 6.72 | 6.50 | –
38 | COC(=O)/C=C/c1cc(F)cc(N(Cc2ccc(-c3ccc(N(C)C)cc3)cc2)C(=O)c2ccccc2)c1 [NSSK00068] | 5.24 | 5.13 | –
